Assays:
[1] = tested on: Human alphaherpesvirus 1; assay: Antiviral activity against HSV1/F infected in African green monkey Vero cells assessed as inhibition of plaque formation after 24 hrs by crystal violet staining-based assay; assay type: functional, organism-based; settings: Human alphaherpesvirus 1, strain F
[2] = Cytotoxicity against African green monkey Vero cells assessed as decrease in cell viability after 24 hrs by CellTiter-Glo luminescent assay; assay type: cell-based; settings: chlorocebus sabaeus
[3] = Selectivity index, ratio of CC50 for African green monkey Vero cells to IC50 for HSV1/F; assay type: toxicity; settings: read-out: Ratio CC50/IC50

Row | IC50 [1] | Structure (SMILES) | CC50 at 24 h [2] | selectivity ratio [3]
1 | 12.4 µM | CCCCCCCCCc1oc2c(O)ccc(-c3oc4cc(O)cc(O)c4c(=O)c3O[C@@H]3O[C@H](CO)[C@H](O)[C@H](O)[C@H]3O)c2c1C=O | > 200 µM | > 16.1
2 | 17.7 µM | CCCCCCCCCC(=O)/C=C/c1c(CCCCCCCCC)oc2c(O)ccc(-c3oc4cc(O)cc(O)c4c(=O)c3O[C@@H]3O[C@H](CO)[C@H](O)[C@H](O)[C@H]3O)c12 | > 200 µM | > 11.3
3 | 0.15 µM | Nc1nc2c(ncn2COCCO)c(=O)[nH]1 [ACYCLOVIR] | > 200 µM | > 1330

Reference: ChEMBL document CHEMBL4130537, “Houttuynoid M, an Anti-HSV Active Houttuynoid from Houttuynia cordata Featuring a Bis-houttuynin Chain Tethered to a Flavonoid Core” (J Nat Prod, 2017)
